Measured values taken from PMC7918798, “Coumarins from Seseli devenyense Simonk.: Isolation by Liquid–Liquid Chromatography and Potential Anxiolytic Activity Using an In Vivo Zebrafish Larvae Model” (International Journal of Molecular Sciences, 2021).

How the values were obtained:
[1] = Shake-flask partition coefficient in HEMWat biphasic solvent systems; assay type: physicochemical
Procedure: The screening for suitable biphasic solvent systems to isolate the target coumarins from Seseli devenyense methanolic fruit extract (SDMFE) was performed by shake-flask experiments. The partition coefficient (Pi), defined as the ratio of the concentration of a solute in the stationary phase to its concentration in the mobile phase, was used as the screening parameter. The experimental protocol was previously descried by Widelski et al. (2018). Briefly, 1 mg of crude extract was dissolved in 4 mL of biphasic solvent systems obtained by mixing various volumes of hexane, ethyl acetate, methanol and water (HEMWat). After vigorous shaking, the flasks were left until the complete separation of the layers. Then, equal volumes of the upper and lower phase (0.5 mL) were taken, evaporated to dryness, dissolved again in methanol (1.0 mL) and analyzed by HPLC-DAD analysis, as descried below.
The preliminary analysis of the SDMFE, determination of the partition coefficient values and purity of collected fractions were assessed by HPLC-DAD. The HPLC-DAD analyses were performed on a Shimadzu HPLC (Shimadzu, Tokyo, Japan) equipped with automatic degasser (DGU-20A3R), quaternary pump (LC-20AD), auto-sampler (SIL-20AHT) and diode array detector (SPD-M20A). The separations were carried out on an Agilent Zorbax Eclipse XDB-C18 (Agilent, Santa Clara, CA, USA) (250 mm × 4.6 mm, 5 μm) column with a mobile phase consisting of water (solvent A) and methanol (solvent B). The following gradient was applied: 0 min: 50% B; 5 min: 60% B; 25 min: 80% B; 30–35 min: 100% B. The flow-rate was 1 mL/min; the column temperature was set at 25 °C. The injection volume of sample was 10 μL and detection was carried out at 320 nm.

[2] = system: 5-dpf zebrafish larvae; assay: Zebrafish larvae light/dark transition challenge: locomotor activity and thigmotaxis (anxiolytic activity assay, Phase 2); assay type: in vivo, Danio rerio; conditions: for distance moved by the larvae in the central arena / time spent in the central area: dark phase vs light phase, concentration not stated
Procedure: (§1) The research protocol was adopted after Schnorr et al. (2012). The anxiolytic activity was evaluated in 24-well plates. The inner and outer zones of the well were delineated according to Schnorr et al. (2012). […] It could be also described as decreasing thigmotaxis. 1% DMSO in E3 solution was used as the negative control, 10 μM diazepam was used as the positive control. 32 larvae were used for each concentration.
(§2) The experimental procedure was divided into three stages: • (a) Preincubation: larvae were pre-incubated in a 1500 μL solution of tested compounds in individual wells of a 24-well plate at 28.5 °C, in dark, for 30 min. • (b) Acclimatization (min 0–10): plates were placed in an automated video recording bench station (ViewPoint, Lyon, France). Larvae were allowed to acclimatize to the test apparatus for 10 min. During this period, lights were kept on. • (c) Visual motor challenge (min 11–95): this stage experiment was divided into two phases: Phase 1—continuous illumination: larvae were subjected to continuous light for 40 min, with the purpose to determine the spontaneous locomotor activity and thigmotaxis behavior (before applying the factor causing the anxiety). Phase 2—light/dark transition: larvae were subjected to three cycles, each involving the 10-min lighting phase (continuous light) and the 5-min dark phase (anxiogenic factor).

[3] = system: 5-dpf zebrafish larvae; assay: Zebrafish larvae 40 min continuous illumination: spontaneous locomotor activity and thigmotaxis (Phase 1); assay type: in vivo, Danio rerio; conditions: for spontaneous locomotor activity (average distance moved): 40 min continuous illumination
Procedure: as §1, §2

[4] = dark phase vs DMSO-treated group in dark phase, 1.5 μM
[5] = dark phase vs DMSO-treated group in dark phase, 6 μM
[6] = dark phase vs DMSO-treated group in dark phase, 9 μM
[7] = dark phase vs DMSO-treated group in dark phase, 15 μM
[8] = dark phase vs light phase within same group, 1.5 μM
[9] = dark phase vs light phase within same group, 3 μM
[10] = dark phase vs light phase within same group, 6 μM
[11] = dark phase vs light phase within same group, 9 μM
[12] = dark phase vs light phase within same group, 15 μM
[13] = dark phase vs DMSO-treated group in dark phase, 12.5 μM
[14] = dark phase vs DMSO-treated group in dark phase, 25 μM
[15] = dark phase vs DMSO-treated group in dark phase, 50 μM
[16] = dark phase vs light phase within same group, 12.5 μM
[17] = dark phase vs light phase within same group, 25 μM
[18] = light phase vs DMSO-treated group in light phase, 12.5 μM
[19] = light phase vs DMSO-treated group in light phase, 50 μM
[20] = 40 min continuous illumination vs DMSO-treated group, 12.5 µM

**Q.** With `CC(C)(O)C(O)Cc1c(O)ccc2ccc(=O)oc12` (stereo not drawn) [devenyol] as the compound, how does the “Partition Coefficients (Pi)” value ([1]; solvent system I, hexane/ethyl acetate/methanol/water 2/5/2/5 (v/v/v/v)) read?
**A.** The value was 0.80.

**Q.** And the “anxiolytic activity (authors' overall statement)” value ([2]; concentrations of 1.5, 6, 9 and 15 μM)?
**A.** The value was “active”.

**Q.** And the “locomotor activity (average distance moved per 1-min time bin)” value [2, 4]?
**A.** The value was “decreases”.

**Q.** And the “percentage of distance moved in central area” value [2, 4]?
**A.** Its value is “significant increases”.

**Q.** And the “percentage of time spent in central area” value [2, 4]?
**A.** The value was “significant increase”.

**Q.** What about the “percentage of distance moved in central area” value [2, 5] of the same compound?
**A.** The value was “significant increases”.

**Q.** What about the “percentage of time spent in central area” value [2, 5] of the same compound?
**A.** The value was “significant increase”.

**Q.** And the “percentage of distance moved in central area” value [2, 6]?
**A.** The value was “significant increases”.

**Q.** And the “percentage of time spent in central area” value [2, 6]?
**A.** The value was “significant increase”.

**Q.** What about the “percentage of distance moved in central area” value [2, 7] of the same compound?
**A.** The value was “significant increases”.

**Q.** And the “percentage of time spent in central area” value [2, 7]?
**A.** The value was “significant increase”.

**Q.** And the “locomotor activity (average distance moved per 1-min time bin)” value [2, 8]?
**A.** Its value is “significant increases”.

**Q.** What about the “percentage of distance moved in central area” value [2, 8] of the same compound?
**A.** The value was “increase”.

**Q.** And the “locomotor activity (average distance moved per 1-min time bin)” value [2, 9]?
**A.** The value was “significant increases”.

**Q.** And the “percentage of distance moved in central area” value [2, 9]?
**A.** The value was “increase”.

**Q.** And the “locomotor activity (average distance moved per 1-min time bin)” value [2, 10]?
**A.** Its value is “significant increases”.

**Q.** And the “percentage of distance moved in central area” value [2, 10]?
**A.** Its value is “increase”.

**Q.** And the “locomotor activity (average distance moved per 1-min time bin)” value [2, 11]?
**A.** The value was “significant increases”.

**Q.** And the “percentage of distance moved in central area” value [2, 11]?
**A.** The value was “increase”.

**Q.** What about the “locomotor activity (average distance moved per 1-min time bin)” value [2, 12] of the same compound?
**A.** The value was “significant increases”.

**Q.** And the “percentage of distance moved in central area” value [2, 12]?
**A.** The value was “increase”.

**Q.** What about the “percentage of time spent in central area” value ([2]; dark phase vs light phase within same group, all concentrations (1.5, 3, 6, 9, 15 μM)) of the same compound?
**A.** The value was “increase”.

**Q.** What about the “distance moved by the larvae in the central arena” value [2] of the same compound?
**A.** The value was “significantly increased”.

**Q.** And the “time spent in the central area” value [2]?
**A.** Its value is “significantly increased”.

**Q.** What about the “spontaneous locomotor activity (average distance moved)” value ([3]; all concentrations (1.5, 3, 6, 9, 15 µM)) of the same compound?
**A.** Its value is “has not influenced”.

**Q.** For `C/C=C(/C)C(=O)O[C@H]1[C@@H](O)c2c(ccc3ccc(=O)oc23)OC1(C)C` [isolaserpitin], which “Partition Coefficients (Pi)” value ([1]; solvent system II, hexane/ethyl acetate/methanol/water 6/5/6/5 (v/v/v/v)) is on record?
**A.** The value was 1.01.

**Q.** What about the “locomotor activity (average distance moved per 1-min time bin)” value [2, 13] of the same compound?
**A.** The value was “significant increases”.

**Q.** And the “percentage of distance moved in central area” value [2, 13]?
**A.** Its value is “significant increases”.

**Q.** And the “percentage of time spent in central area” value [2, 13]?
**A.** Its value is “significant increases”.

**Q.** And the “locomotor activity (average distance moved per 1-min time bin)” value [2, 14]?
**A.** Its value is “significant increases”.

**Q.** What about the “percentage of distance moved in central area” value [2, 14] of the same compound?
**A.** Its value is “significant increases”.

**Q.** What about the “percentage of time spent in central area” value [2, 14] of the same compound?
**A.** Its value is “significant increases”.

**Q.** What about the “locomotor activity (average distance moved per 1-min time bin)” value [2, 15] of the same compound?
**A.** Its value is “significant increases”.

**Q.** What about the “percentage of distance moved in central area” value [2, 15] of the same compound?
**A.** Its value is “significant increases”.

**Q.** And the “percentage of time spent in central area” value [2, 15]?
**A.** The value was “significant increases”.

**Q.** And the “percentage of distance moved in central area” value [2, 16]?
**A.** The value was “increase”.

**Q.** And the “percentage of time spent in central area” value [2, 16]?
**A.** Its value is “increase”.

**Q.** And the “percentage of distance moved in central area” value [2, 17]?
**A.** Its value is “increase”.

**Q.** What about the “percentage of time spent in central area” value [2, 17] of the same compound?
**A.** The value was “increase”.

**Q.** And the “percentage of distance moved in central area” value ([2]; dark phase vs light phase within same group, 50 μM)?
**A.** The value was “increase”.

**Q.** What about the “distance moved by the larvae in the central arena” value [2] of the same compound?
**A.** The value was “significantly increased”.

**Q.** And the “time spent in the central area” value [2]?
**A.** Its value is “significantly increased”.

**Q.** What about the “locomotor activity (average distance moved per 1-min time bin)” value [2, 18] of the same compound?
**A.** The value was “significant increase”.

**Q.** And the “percentage of distance moved in central area” value [2, 18]?
**A.** Its value is “significant increase”.

**Q.** What about the “percentage of time spent in central area” value [2, 18] of the same compound?
**A.** Its value is “significant increase”.

**Q.** And the “locomotor activity (average distance moved per 1-min time bin)” value ([2]; light phase vs DMSO-treated group in light phase, 25 μM)?
**A.** The value was “significant increase”.

**Q.** And the “locomotor activity (average distance moved per 1-min time bin)” value [2, 19]?
**A.** The value was “significant increase”.

**Q.** And the “percentage of distance moved in central area” value [2, 19]?
**A.** The value was “significant increase”.

**Q.** What about the “percentage of time spent in central area” value [2, 19] of the same compound?
**A.** The value was “significant increase”.

**Q.** And the “anxiolytic activity (authors' overall statement)” value ([2]; zebrafish larvae model)?
**A.** The value was “higher”.

**Q.** What about the “percentage of distance moved in the central arena” value [3, 20] of the same compound?
**A.** Its value is “increased”.

**Q.** And the “percentage of time spent in the central arena” value [3, 20]?
**A.** Its value is “increase”.

**Q.** What about the “percentage of distance moved in the central arena” value ([3]; 40 min continuous illumination vs DMSO-treated group, 50 µM) of the same compound?
**A.** Its value is “increased”.

**Q.** And the “spontaneous locomotor activity (average distance moved)” value ([3]; all concentrations (12.5, 25, 50 µM))?
**A.** The value was “has not influenced”.
